In paper PMC8593678, “Berberine Improves Irinotecan-Induced Intestinal Mucositis Without Impairing the Anti-colorectal Cancer Efficacy of Irinotecan by Inhibiting Bacterial β-glucuronidase” (Frontiers in Pharmacology, 2021):

Biological target: T1, β-glucuronidase (GUS) (Escherichia coli, UniProt P05804)
T1 construct: gene uidA
Assay: fluorescent 4-MUG hydrolysis assay with purchased E. coli GUS; Lineweaver-Burk plots
Format: biochemical

T1 sequence (P05804 whole entry): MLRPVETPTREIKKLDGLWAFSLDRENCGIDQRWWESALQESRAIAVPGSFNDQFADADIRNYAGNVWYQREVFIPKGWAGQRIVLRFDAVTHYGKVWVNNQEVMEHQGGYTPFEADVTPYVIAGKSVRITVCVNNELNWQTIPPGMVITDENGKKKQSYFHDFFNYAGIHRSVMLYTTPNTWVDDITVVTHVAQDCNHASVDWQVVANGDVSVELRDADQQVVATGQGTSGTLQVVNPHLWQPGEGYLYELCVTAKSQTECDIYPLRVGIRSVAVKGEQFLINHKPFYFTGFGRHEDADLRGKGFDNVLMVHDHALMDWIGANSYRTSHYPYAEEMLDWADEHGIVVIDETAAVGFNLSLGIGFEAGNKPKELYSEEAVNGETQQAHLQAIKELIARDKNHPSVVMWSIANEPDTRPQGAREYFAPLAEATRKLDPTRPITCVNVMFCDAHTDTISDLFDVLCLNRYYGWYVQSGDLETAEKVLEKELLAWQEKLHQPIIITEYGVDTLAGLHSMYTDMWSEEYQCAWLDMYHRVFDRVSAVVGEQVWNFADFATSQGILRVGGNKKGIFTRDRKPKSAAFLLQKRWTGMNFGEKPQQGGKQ

Compound `COc1ccc2cc3[n+](cc2c1OC)CCc1cc2c(cc1-3)OCO2` [Berberine, 9,10-dimethoxy-5,6-dihydro-(1,3)dioxolo (4,5-g)isoquinolino (3,2-a)isoquinolin-7-ium] has an IC50 of 54 ± 5.1 µM.
